What follows are compounds tested on P. falciparum (NF54 or 3D7 strain) (assay: Assay for P. falciparum proliferation in infected human blood cells (SYBR Green)). Conditions: Plasmodium falciparum, Erythrocyte, 72 h, NF54 or 3D7 infected human erythrocytes, 72 hours; read-out: EC50 (nM), inhibitory efficacy in delaying P. falciparum proliferation in infected human blood cells.
Format: cell-based, Plasmodium falciparum
Method in brief: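 Infected erythrocytes (NF54 or 3D7; final 2.5% hematocrit, 0.3% parasitemia) were incubated with compounds for 72 h at 37 °C in low oxygen (3% O2, 4% CO2, 93% N2).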

SMILES | EC50 [nM]
CN(C(=O)c1cn2c(-c3ccc(C(F)(F)F)nc3)cnc2cn1)c1ccc(Cl)nc1 [Compound 413, N-(6-chloropyridin-3-yl)-N-methyl-3-[6-(trifluoromethyl)pyridin-3-yl]imidazo[1,2-a]pyrazine-6-carboxamide] | 7400
CC(C)(NC(=O)c1cn2c(-c3ccc(C(F)(F)F)cc3)cnc2cn1)c1ccc(F)cc1 [Compound 414, N-[2-(4-fluorophenyl)propan-2-yl]-3-[4-(trifluoromethyl)phenyl]imidazo[1,2-a]pyrazine-6-carboxamide] | > 7910
COC(=O)Nc1ccc(-c2cnc3cnc(C(=O)N(C)c4ccc(C)cn4)cn23)cn1 [Compound 415, methyl N-(5-{6-[methyl(5-methylpyridin-2-yl)carbamoyl]imidazo[1,2-a]pyrazin-3-yl}pyridin-2-yl)carbamate] | > 10000
CN(C(=O)c1cn2c(-c3ccc(C(F)(F)F)cc3)cnc2cn1)c1cccc2nncn12 [Compound 416, N-methyl-N-{[1,2,4]triazolo[4,3-a]pyridin-5-yl}-3-[4-(trifluoromethyl)phenyl]imidazo[1,2-a]pyrazine-6-carboxamide] | > 10000
CN(C(=O)c1ccc(C(C)(C)C)cc1)c1cn2c(-c3ccc(C(F)(F)F)cc3)cnc2cn1 [Compound 417, 4-tert-butyl-N-methyl-N-{3-[4-(trifluoromethyl)phenyl]imidazo[1,2-a]pyrazin-6-yl}benzamide] | > 10000
CN(C)c1cccc(-c2cnc3cnc(C(=O)N(C)c4ccc(Cl)nc4)cn23)c1 [Compound 418, N-(6-chloropyridin-3-yl)-3-[3-(dimethylamino)phenyl]-N-methylimidazo[1,2-a]pyrazine-6-carboxamide] | > 10000
CN(C(=O)c1cn2c(-c3ccc(NS(C)(=O)=O)cc3)cnc2cn1)c1ccc(Cl)nc1 [Compound 419, N-(6-chloropyridin-3-yl)-3-(4-methanesulfonamidophenyl)-N-methylimidazo[1,2-a]pyrazine-6-carboxamide] | > 8270
Cc1ncccc1N(C)C(=O)c1cn2c(-c3ccc(C(F)(F)F)cc3)cnc2cn1 [Compound 420, N-methyl-N-(2-methylpyridin-3-yl)-3-[4-(trifluoromethyl)phenyl]imidazo[1,2-a]pyrazine-6-carboxamide] | > 10000
CN(C(=O)c1cn2c(-c3ccc(F)cc3)cnc2cn1)c1ccc(Cl)nc1 [Compound 422, N-(6-chloropyridin-3-yl)-3-(4-fluorophenyl)-N-methylimidazo[1,2-a]pyrazine-6-carboxamide] | > 10000
CN(C(=O)c1cn2c(-c3ccc(C(F)(F)F)cc3)cnc2cn1)c1nc(-c2ccccc2)cs1 [Compound 423, N-methyl-N-(4-phenyl-1,3-thiazol-2-yl)-3-[4-(trifluoromethyl)phenyl]imidazo[1,2-a]pyrazine-6-carboxamide] | > 9660
CN(C)C(=O)c1ccc(-c2cnc3cnc(C(=O)N(C)c4ccc(C#N)cc4)cn23)cc1 [Compound 427, N-(4-cyanophenyl)-3-[4-(dimethylcarbamoyl)phenyl]-N-methylimidazo[1,2-a]pyrazine-6-carboxamide] | > 9800
CN(C(=O)c1cn2c(-c3ccc(C(F)(F)F)cc3)cnc2cn1)c1ncc(Br)cn1 [Compound 434, N-(5-bromopyrimidin-2-yl)-N-methyl-3-[4-(trifluoromethyl)phenyl]imidazo[1,2-a]pyrazine-6-carboxamide] | 7090
CC(C)Oc1ccc(N(C)C(=O)c2cn3c(-c4ccc(C(F)(F)F)cc4)cnc3cn2)cc1 [Compound 436, N-methyl-N-[4-(propan-2-yloxy)phenyl]-3-[4-(trifluoromethyl)phenyl]imidazo[1,2-a]pyrazine-6-carboxamide] | 9300
CN(C)c1cccc(-c2cnc3cnc(C(=O)N(C)c4ccc(C#N)cc4)cn23)c1 [Compound 438, N-(4-cyanophenyl)-3-[3-(dimethylamino)phenyl]-N-methylimidazo[1,2-a]pyrazine-6-carboxamide] | > 10000
COc1ccc(-c2cnc3cnc(C(=O)N(C)c4ccc(C#N)cc4)cn23)c(C)c1 [Compound 441, N-(4-cyanophenyl)-3-(4-methoxy-2-methylphenyl)-N-methylimidazo[1,2-a]pyrazine-6-carboxamide] | 6500

Results, then the compound that gave them:

EC50 [nM] | SMILES
291 | Cc1n[nH]c2ccc(-c3cnc4cnc(C(=O)N(C)c5ccc(C#N)cc5)cn34)cc12 [Compound 424]
1020 | CC(=O)c1ccc(N(C)C(=O)c2cn3c(-c4ccc(C(F)(F)F)cc4)cnc3cn2)cc1 [Compound 425, N-(4-acetylphenyl)-N-methyl-3-[4-(trifluoromethyl)phenyl]imidazo[1,2-a]pyrazine-6-carboxamide]
1950 | O=C1CCCCN1Cc1cn2c(-c3ccc(C(F)(F)F)cc3)cnc2cn1 [Compound 426, 1-({3-[4-(trifluoromethyl)phenyl]imidazo[1,2-a]pyrazin-6-yl}methyl)piperidin-2-one]
276 | CN(C(=O)c1cn2c(-c3ccc4[nH]ccc4c3)cnc2cn1)c1ccc(C#N)cc1 [Compound 428, N-(4-cyanophenyl)-3-(1H-indol-5-yl)-N-methylimidazo[1,2-a]pyrazine-6-carboxamide]
313 | CN(C(=O)c1cn2c(-c3ccc(OC(F)F)cc3)cnc2cn1)c1ccc(Cl)nc1 [Compound 429, N-(6-chloropyridin-3-yl)-3-[4-(difluoromethoxy)phenyl]-N-methylimidazo[1,2-a]pyrazine-6-carboxamide]
17 | COc1cc(F)ccc1N(C)C(=O)c1cn2c(-c3ccc(C(F)(F)F)cc3)cnc2cn1 [Compound 430, N-(4-fluoro-2-methoxyphenyl)-N-methyl-3-[4(trifluoromethyl)phenyl]imidazo[1,2-a]pyrazine]
82 | COc1ccc(-c2cnc3cnc(C(=O)N(C)c4ccc(F)c(F)c4)cn23)cc1 [Compound 431, N-(3,4-difluorophenyl)-3-(4-methoxyphenyl)-N-methylimidazo[1,2-a]pyrazine-6-carboxamide]
79 | Cc1ccc(-c2cnc3cnc(C(=O)N(C)c4ccc(Cl)cc4)cn23)cc1 [Compound 432, N-(4-chlorophenyl)-N-methyl-3-(4-methylphenyl)imidazo[1,2-a]pyrazine-6-carboxamide]
31 | CN(C(=O)c1cn2c(-c3ccc(OC(F)F)cc3)cnc2cn1)c1ccc(F)cc1 [Compound 433, 3-[4-(difluoromethoxy)phenyl]-N-(4-fluorophenyl)-N-methylimidazo[1,2-a]pyrazine-6-carboxamide]
214 | CN(C(=O)c1cn2c(-c3ccc(C(F)(F)F)cc3)cnc2cn1)c1ccc(Cl)cn1 [Compound 435, N-(5-chloropyridin-2-yl)-N-methyl-3-[4-(trifluoromethyl)phenyl]imidazo[1,2-a]pyrazine-6-carboxamide]
176 | CN(C)c1ccc(-c2cnc3cnc(CN(C)c4ccc(C#N)cc4)cn23)cc1 [Compound 437, 4-[({3-[4-(dimethylamino)phenyl]imidazo[1,2-a]pyrazin-6-yl}methyl)(methyl)amino]benzonitrile]
2760 | CN(C(=O)c1cn2c(-c3ccc(Cl)nc3)cnc2cn1)c1ccc(C#N)cc1 [Compound 439, 3-(6-chloropyridin-3-yl)-N-(4-cyanophenyl)-N-methylimidazo[1,2-a]pyrazine-6-carboxamide]
140 | COc1cccc(N(C)C(=O)c2cn3c(-c4ccc(C(F)(F)F)cc4)cnc3cn2)c1 [Compound 440, N-(3-methoxyphenyl)-N-methyl-3-[4-(trifluoromethyl)phenyl]imidazo[1,2-a]pyrazine-6-carboxamide]
604 | O=C(Nc1nc2cccc(Cl)c2s1)c1cn2c(-c3ccc(C(F)(F)F)cc3)cnc2cn1 [Compound 442, N-(7-chloro-1,3-benzothiazol-2-yl)-3-[4-(trifluoromethyl)phenyl]imidazo[1,2-a]pyrazine-6-carboxamide]
9 | CNc1nnc(-c2ccc(-c3cnc4cnc(C(=O)N(C)c5ccc(C#N)cc5)cn34)cc2)s1 [Compound 476, N-(4-cyanophenyl)-N-methyl-3-{4-[5-(methylamino)-1,3,4-thiadiazol-2-yl]phenyl}imidazo[1,2-a]pyrazine-6-carboxamide]
31 | CNc1nnc(-c2ccc(-c3cnc4cnc(C(=O)N(C)c5ccc(F)cc5)cn34)cc2)o1 [Compound 478, N-(4-fluorophenyl)-N-methyl-3-{4-[5-(methylamino)-1,3,4-oxadiazol-2-yl]phenyl}imidazo[1,2-a]pyrazine-6-carboxamide]
35 | CN(Cc1cn2c(-c3ccc(OC(F)F)cc3)cnc2cn1)c1ccc(C#N)cc1 [Compound 479, 4-[({3-[4-(difluoromethoxy)phenyl]imidazo[1,2-a]pyrazin-6-yl}methyl)(methyl)amino]benzonitrile]
25 | CN(C(=O)c1cn2c(-c3ccc4c(cnn4C)c3)cnc2cn1)c1ccc(Cl)cc1 [Compound 480, N-(4-chlorophenyl)-N-methyl-3-(1-methyl-1H-indazol-5-yl)imidazo[1,2-a]pyrazine-6-carboxamide]
34 | CN(C(=O)c1cn2c(-c3ccc(-c4ccn[nH]4)cc3)cnc2cn1)c1ccc(C#N)cc1 [Compound 481, N-(4-cyanophenyl)-N-methyl-3-[4-(1H-pyrazol-5-yl)phenyl]imidazo[1,2-a]pyrazine-6-carboxamide]
9 | CNc1nnc(-c2ccc(-c3cnc4cnc(C(=O)N(C)c5ccc(Cl)cc5)cn34)cc2)o1 [Compound 483, N-(4-chlorophenyl)-N-methyl-3-{4-[5-(methylamino)-1,3,4-oxadiazol-2-yl]phenyl}imidazo[1,2-a]pyrazine-6-carboxamide]

Same assay, conditions: Plasmodium falciparum, Erythrocyte, 72 h, read-out: EC50 (nM), inhibitory efficacy in delaying P. falciparum proliferation in infected human blood cells

SMILES | EC50 [nM]
O=C(Nc1ccc(C(F)(F)F)cc1)c1cn2c(-c3ccc(C(F)(F)F)cc3)cnc2cn1 [Compound 445, N,3-bis[4-(trifluoromethyl)phenyl]imidazo[1,2-a]pyrazine-6-carboxamide] | > 10000

Same assay, conditions: Plasmodium falciparum, Erythrocyte, infected human red blood cells; read-out: EC50, P. falciparum Proliferation Assay

SMILES | EC50 [nM]
CNc1nnc(-c2ccc(-c3cnc4cnc(C(=O)N(C)c5ccc(F)cc5)cn34)cc2)o1 [Compound 478, N-(4-fluorophenyl)-N-methyl-3-{4-[5-(methylamino)-1,3,4-oxadiazol-2-yl]phenyl}imidazo[1,2-a]pyrazine-6-carboxamide] | < 50
CNc1nnc(-c2ccc(-c3cnc4cnc(C(=O)N(C)c5ccc(Cl)cc5)cn34)cc2)o1 [Compound 483, N-(4-chlorophenyl)-N-methyl-3-{4-[5-(methylamino)-1,3,4-oxadiazol-2-yl]phenyl}imidazo[1,2-a]pyrazine-6-carboxamide] | < 50
